# Laboratory results taken from US12173309B2, “Compounds for increasing genome editing efficiency” (Max-Planck-Gesellschaft zur Förderung der Wissenschaften …, priority 2017, dated 2024).
# Entries after “also recorded” stand apart in the source; their conditions may differ.
# Legend:
# [1] = tested on: 409-B2 iCRISPR-Cas9 iPSCs; assay: PGE efficiency with iCRISPR Cas9 and ssODN donors; format: cell-based, human; details: 0.01 μM TSA, 0.5 μM MLN4924, 1 μM NSC 19630, 20 μM AICAR, 1 μM RS-1, 1 μM Resveratrol, 1 μM SCR7, 5 μM L755507, 5 μM STL127685, 20 μM B02
# Protocol: (§1) FIG. 1: Genome editing and analysis flowchart. iCRISPR 409-B2 iPSCs are treated with 2 μg/ml doxycycline at least for 2 days to induce Cas9 or Cas9D10A expression. Reverse transfection with RNAiMAX, gRNA (7.5 nM each), ssODN (10 nM) and the small molecules to be evaluated is carried out in a 96 well plate for 1 day. The amount of cells used gives ˜80% confluency. Cells are then expanded for 3 days with regular media change. After harvest follows DNA extraction, PCR amplification of targeted loci, Illumina sequencing and CRISPResso (Pinello et al. 2016) sequence analysis for amount of indels and precise genome editing.
# (§2) Cells were incubated with media containing 2 μg/ml doxycycline (Clontech, 631311) 2 days prior to lipofection. Lipofection (reverse transfection) was done using the alt-CRISPR manufacturer's protocol (IDT) with a final concentration of 7.5 nM of each gRNA and 10 nM of the respective ssODN. In brief, 0.75 μl RNAiMAX (Invitrogen, 13778075) and the respective oligonucleotides were separately diluted in 25 μl OPTI-MEM (Gibco, 1985-062) each and incubated at room temperature for 5 min. Both dilutions were mixed to yield 50 μl of OPTI-MEM including RNAiMAX, gRNAs and ssODNs. The lipofection mix was incubated for 20-30 min at room temperature. During incubation cells were dissociated using EDTA for 5 min and counted using the Countess Automated Cell Counter (Invitrogen). The lipofection mix, 100 μl containing 25.000 dissociated cells in mTeSR1 supplemented with Y-27632, 2 μg/ml doxycycline and the respective small molecule(s) to be tested were throughoutly mixed and put in one well of a 96 well covered with Matrigel Matrix (Corning, 35248). Media was exchanged to regular mTeSR1 media after 24 hours.
# (§3) Three days after lipofection cells were dissociated using Accutase (SIGMA, A6964), pelleted, and resuspended in 15 μl QuickExtract (Epicentre, QE0905T). Incubation at 65° C. for 10 min, 68° C. for 5 min and finally 98° C. for 5 min was performed to yield ssDNA as a PCR template. Primers for each targeted loci of CALD1, KATNA1 and SLITRK1 containing adapters for Illumina sequencing were ordered from IDT (Coralville, USA). PCR was done in a T100 Thermal Cycler (Bio-Rad) using the KAPA2G Robust PCR Kit (Peqlab, 07-KK5532-03) with supplied buffer B and 3 μl of cell extract in a total volume of 25 μl. The thermal cycling profile of the PCR was: 95° C. 3 min; 34×(95° 15 sec, 65° C. 15 sec, 72° C. 15 sec); 72° C. 60 sec. P5 and P7 Illumina adapters with sample specific indices were added in a second PCR reaction (Kircher et al. 2012) using Phusion HF MasterMix (Thermo Scientific, F-531L) and 0.3 μl of the first PCR product. The thermal cycling profile of the PCR was: 98° C. 30 sec; 25× (98° 10 sec, 58° C. 10 sec, 72° C. 20 sec); 72° C. 5 min. Amplifications were verified by size separating agarose gel electrophoresis using EX gels (Invitrogen, G4010-11). The indexed amplicons were purified using Solid Phase Reversible Immobilization (SPRI) beads (Meyer, Kircher 2010). Double-indexed libraries were sequenced on a MiSeq (Illumina) giving paired-end sequences of 2×150 bp. After base calling using Bustard (Illumina) adapters were trimmed using leeHom (Renaud et al. 2014).
# (§4) CRISPresso (Pinello et al. 2016) was used to analyse sequencing data from CRISPR genome editing experiments for percentage of wildtype, targeted nucleotide substitutions (TNS), indels and mix of TNS and indels. Parameters used for analysis were ‘-w 20’, ‘--min_identity_score 70’ and ‘--ignore_substitutions’ (analysis was restricted to amplicons with a minimum of 70% similarity to the wildtype sequence and to a window of 20 bp from each gRNA; substitutions were ignored, as sequencing errors would be falsely characterized as NHEJ-events). Sequencing data from colonies after single cell seeding (FIGS. 3B and C) was further analyzed by evaluating the actual read sequences using SAMtools. Clonal colonies were differentiated from mixed colonies using sequence read proportions. […]
# rabbit embryos = details: literature; RS-1 with dsODN donors, control 4.4%; cited from earlier work
# [2] = tested on: porcine fetal fibroblasts; details: literature; ssODN donors; cited from earlier work
# U2OS cells = details: literature; dsODN donors, control 1.9%; cited from earlier work
# HEK293A cells = details: literature; RS-1 with dsODN donors, control 3.5%; cited from earlier work
# [3] = tested on: 409-B2 iCRISPR-Cas9D10A iPSCs; assay: Precise genome editing (PGE) efficiency with iCRISPR Cas9D10A double nicking and ssODN donors, Illumina sequencing/CRISPResso; format: cell-based, human; details: for effect on PGE frequency over CALD1, KATNA1 and SLITRK1 compared to controls: 1 μM NSC 19630, 20 μM AICAR, 1 μM RS-1, 1 μM Resveratrol, 1 μM SCR7, 5 μM L755507, 5 μM STL127685, 20 μM B02; for effect on PGE of further addition to the mix of NU7026, TSA and MLN4924: all loci, 5 μM NSC 15520, then 1 μM NSC 19630, 20 μM AICAR, 1 μM RS-1 (FIG. 5A); for effect on PGE efficiency with ssODN (discussion summary): nuclease not stated; for PGE increase (mean change vs control): 20 μM NU7026, 0.01 μM TSA, 0.5 μM MLN4924, 5 μM NSC 15520, CRISPY mix = all four
# Protocol: as §1, §2, §3, §4
# human LIG4 = human LIG4 (Homo sapiens, UniProt P49917); details: literature (Greco et al. 2016); cited from earlier work
# human LIG4, sequence (P49917 whole entry): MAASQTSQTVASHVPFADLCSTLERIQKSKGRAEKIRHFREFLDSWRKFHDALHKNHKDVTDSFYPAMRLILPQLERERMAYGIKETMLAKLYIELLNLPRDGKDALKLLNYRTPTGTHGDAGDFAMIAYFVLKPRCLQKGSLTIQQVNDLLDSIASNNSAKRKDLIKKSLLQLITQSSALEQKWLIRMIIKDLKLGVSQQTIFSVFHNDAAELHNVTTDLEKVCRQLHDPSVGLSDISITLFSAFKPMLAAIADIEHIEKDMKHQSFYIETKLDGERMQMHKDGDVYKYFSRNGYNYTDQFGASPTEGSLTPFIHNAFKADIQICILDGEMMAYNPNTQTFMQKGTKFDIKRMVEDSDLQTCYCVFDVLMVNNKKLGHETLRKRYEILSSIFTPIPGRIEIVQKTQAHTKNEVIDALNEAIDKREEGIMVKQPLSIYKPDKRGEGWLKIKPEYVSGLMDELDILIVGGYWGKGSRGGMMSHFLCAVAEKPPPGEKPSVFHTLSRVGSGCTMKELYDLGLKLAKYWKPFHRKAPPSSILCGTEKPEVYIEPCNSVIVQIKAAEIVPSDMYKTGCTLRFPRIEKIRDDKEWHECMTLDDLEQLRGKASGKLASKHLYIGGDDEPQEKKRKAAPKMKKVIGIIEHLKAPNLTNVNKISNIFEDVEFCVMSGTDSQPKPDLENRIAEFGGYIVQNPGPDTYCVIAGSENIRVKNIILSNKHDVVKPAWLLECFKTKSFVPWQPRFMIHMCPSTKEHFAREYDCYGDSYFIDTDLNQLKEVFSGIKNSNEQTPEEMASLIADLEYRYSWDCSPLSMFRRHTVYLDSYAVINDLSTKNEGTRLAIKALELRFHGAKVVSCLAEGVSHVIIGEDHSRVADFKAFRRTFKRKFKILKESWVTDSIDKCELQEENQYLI
# human LIG4, sequence (Q13426 whole entry partner): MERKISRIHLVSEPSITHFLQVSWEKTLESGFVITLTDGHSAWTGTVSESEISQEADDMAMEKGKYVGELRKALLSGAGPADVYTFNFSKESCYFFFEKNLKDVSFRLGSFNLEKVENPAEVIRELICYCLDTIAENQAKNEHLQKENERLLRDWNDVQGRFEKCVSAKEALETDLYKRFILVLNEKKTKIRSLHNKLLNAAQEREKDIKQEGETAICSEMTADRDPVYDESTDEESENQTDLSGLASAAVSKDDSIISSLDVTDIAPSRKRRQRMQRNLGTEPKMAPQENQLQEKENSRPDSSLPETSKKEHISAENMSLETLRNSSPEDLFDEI
# human stem cells = details: literature; cited from earlier work
# mouse ESCs = details: literature; dsODN donors, control 17.7%; cited from earlier work
# [4] = tested on: 409-B2 iCRISPR Cas9D10A iPSCs; assay: Cell death by phase contrast light microscopy in first concentration screen; format: cell-based, human
# Description: FIGS. 3A-3D: First screen for solvent effect and influence of different small molecule concentrations on genome edit-ing of CALD1, KATNA1 and SLITRK1 with iCRISPR Cas9D10A. Shown are precise genome editing (PGE) and indels with green circles (triangles) or blue diamonds, respectively. Each symbol represents a technical replicate. The respective means are shown as a black line. Each skull indicates cell death of up to 20% determined by phase contrast light microscopy.
compound,measurement,setting,value
O=C(Nc1ccc(Br)cc1)c1ccc(Br)c(S(=O)(=O)NCc2ccccc2)c1 [RS-1],"effect on PGE frequency over CALD1, KATNA1 and SLITRK1 compared to controls",[1],no effect or a diminishing effect; also recorded: no clear effect
same,PGE,rabbit embryos,26.1%
same,effect on PGE efficiency,[2],No effect
same,PGE,U2OS cells,2.4%
same,PGE,HEK293A cells,21%
same,"effect on PGE frequency over CALD1, KATNA1 and SLITRK1 compared to controls",[3]; Cas9D10A,no clear effect
same,"effect on PGE of further addition to the mix of NU7026, TSA and MLN4924",[3]; Cas9D10A,no measurable effect
same,effect on PGE efficiency with ssODN (discussion summary),[3],no beneficial effect
Oc1ccc(C=Cc2cc(O)cc(O)c2)cc1 [Resveratrol],"effect on PGE frequency over CALD1, KATNA1 and SLITRK1 compared to controls",[1],no effect or a diminishing effect
same,"effect on PGE frequency over CALD1, KATNA1 and SLITRK1 compared to controls",[3]; Cas9D10A,no clear effect
O=c1[nH]c(=S)[nH]c(N=Cc2ccccc2)c1N=Cc1ccccc1 [SCR7],"effect on PGE frequency over CALD1, KATNA1 and SLITRK1 compared to controls",[1],no effect or a diminishing effect; also recorded: no clear effect
same,inhibition of human LIG4,human LIG4,neither selective nor potent
same,PGE,rabbit embryos,no significant effect
same,PGE,HEK293A cells,marginal but significant increase
same,effect on PGE,human stem cells,no significant effect
same,"effect on PGE frequency over CALD1, KATNA1 and SLITRK1 compared to controls",[3]; Cas9D10A,no clear effect
CCCCCCNC(=O)Nc1ccc(S(=O)(=O)Nc2ccc(CCNC[C@H](O)COc3ccc(O)cc3)cc2)cc1 [L755507],PGE,mouse ESCs,33.3%
same,"effect on PGE frequency over CALD1, KATNA1 and SLITRK1 compared to controls",[1],no effect or a diminishing effect; also recorded: no clear effect
same,PGE,HEK293A cells,did not find significant stimulation
same,"effect on PGE frequency over CALD1, KATNA1 and SLITRK1 compared to controls",[3]; Cas9D10A,no clear effect
"CC(/C=C/C(=O)NO)=C\[C@@H](C)C(=O)c1ccc(N(C)C)cc1 [TSA, Trichostatin A]","effect on PGE frequency over CALD1, KATNA1 and SLITRK1 compared to controls",[1],no enhancing effect
same,cell death,[4]; 0.1 μM,All cells died
same,cell death,[4]; 1 μM,All cells died
same,PGE increase (mean change vs control),"[3]; CALD1, Cas9D10A",1.5 fold
same,higher PGE frequency than without the molecules,"[3]; Cas9D10A, pooled across CALD1, KATNA1, SLITRK1 (FIG. 5A), p<0.001",1.8 fold
same,PGE increase (mean change vs control),"[3]; KATNA1, Cas9D10A",2.2 fold
same,PGE increase (mean change vs control),"[3]; SLITRK1, Cas9D10A",1.8 fold
O=c1c2ccccc2nc(/C=C/c2cccnc2)n1Cc1ccccc1 [B02],"effect on PGE frequency over CALD1, KATNA1 and SLITRK1 compared to controls",[1],halved
same,"effect on PGE frequency over CALD1, KATNA1 and SLITRK1 compared to controls",[3]; Cas9D10A,halved
same,effect on PGE efficiency with ssODN (discussion summary),[3],halved
NC(=O)c1ncn([C@@H]2O[C@H](CO)[C@@H](O)[C@H]2O)c1N [AICAR],"effect on PGE frequency over CALD1, KATNA1 and SLITRK1 compared to controls",[1],no effect or a diminishing effect
same,"effect on PGE frequency over CALD1, KATNA1 and SLITRK1 compared to controls",[3]; Cas9D10A,no clear effect
same,"effect on PGE of further addition to the mix of NU7026, TSA and MLN4924",[3]; Cas9D10A,no measurable effect
same,effect on PGE efficiency with ssODN (discussion summary),[3],no effect
